# Tests used:
# E. coli B = experiment: Colony formation by E. coli B (Example 1); format: cell-based; conditions: 37° C.
# Experimental: (1) E. coli, E. coli B was grown in M-9 medium supplemented with glucose ([…]) and 1% casamino acids. The cells were harvested in mid-log phase and resuspended in 50 μL of fresh medium containing 0-160 μM oligomer at a final cell density of 1×10^4 cells/mL. The cells were incubated for 1 h at 37° C. and then diluted with 0.9 mL of medium. A 0.8-mL aliquot was added to 2.5 mL of 0.8% Bactoagar at 45° C. This solution was quickly poured onto a 100-mm plate containing solid 1.2% Bactoagar. After solidification, the plates were incubated overnight at 37° C. and the resulting colonies were counted.
# [1] = tested on: transformed human fibroblast (HTB 1080) cells; experiment: Colony formation by transformed human fibroblasts (Example 1); format: cell-based; conditions: 50 μM; 37° C.
# Experimental: (2) Transformed Syrian Hamster Embryonic Fibroblasts (BP-6) and Transformed Human Fibroblasts (HTB1080). Colony formation by the fibroblasts in the presence of the methylphosphonate analogues was carried out as described by Miller et al, Biochemistry 16, 1988 (1977).
substance,measurement,setting,value
d-ApT,"% inhibition of colony formation, E. coli B",E. coli B; 50 μM,4%
same,"% inhibition of colony formation, E. coli B",E. coli B; 160 μM,5%
same,"% inhibition of colony formation, HBT 1080",[1],12%

# From patent US4757055A, “Method for selectively controlling unwanted expression or function of foreign nucleic acids in animal or mammalian cells” (The Johns Hopkins University, priority 1984, dated 1988)
